# Data published in US20040209776A1, “Azole derivatives useful as insecticide” (priority 2001, published 2004).
# Assays:
# [1] = test system: Plutella xylostella; assay: Pest mortality test against diamond back moth; assay type: in vivo; settings: 120 h, 500 ppm by weight, mortality assessed usually between two and five days after treatment, read-out: Px mortality (score)
# Procedure: (§1) This Example illustrates the pesticidal/insecticidal properties of compounds of formula (I). The activities of individual compounds of formula (I) were determined using a variety of pests. The pests were treated with a liquid composition containing 500 parts per million (ppm) by weight of a compound of formula (I). Each composition was made by dissolving the compound in an acetone and ethanol (50:50 by volume) mixture and diluting the solution with water containing 0.05% by volume of a wetting agent, SYNPERONIC NP8, until the liquid composition contained the required concentration of the compound. SYNPERONIC is a registered trade mark.
# (§2) The test procedure adopted with regard to each pest was essentially the same and comprised supporting a number of the pests on a medium, which was usually a substrate, a host plant or a foodstuff on which the pests feed, and treating either or both the medium and the pests with a composition. Pest mortality was assessed usually between two and five days after treatment.
# (§3) Similar tests were conducted against, independently, two-spotted spider mites (Tetranychus urticae), fruit flies (Drosophila melanogaster), tobacco budworms (Heliothis virescens), diamond back moth (Plutella xylostella) and corn root worm (Diabrotica balteata).
# [2] = test system: Drosophila melanogaster; assay: Pest mortality test against fruit flies; assay type: in vivo; settings: 120 h, 500 ppm by weight, mortality assessed usually between two and five days after treatment, read-out: Dm mortality (score)
# Procedure: as §1, §2, §3
# [3] = test system: Heliothis virescens; assay: Pest mortality test against tobacco budworms; assay type: in vivo; settings: 120 h, 500 ppm by weight, mortality assessed usually between two and five days after treatment, read-out: Hv mortality (score)
# Procedure: as §1, §2, §3
# [4] = test system: Myzus persicae; assay: Pest mortality test against peach potato aphids, infested Chinese cabbage leaves sprayed; assay type: in vivo; settings: 72 h, 500 ppm by weight, sprayed on infested Chinese cabbage leaves, mortality assessed after three days, read-out: Mp mortality (score)
# Procedure: as §1, §2
# In each test against peach potato aphids (Myzus persicae), Chinese cabbage leaves were infested with aphids, the infested leaves were sprayed with a test composition and pest mortality was assessed after three days.
# [5] = test system: Meloidogyne incognita; assay: In vitro test against root knot nematodes suspended in liquid composition; assay type: in vivo; settings: 12.5 ppm by weight, no SYNPERONIC NP8, read-out: Mi mortality (score)
# Procedure: as §1
# Tests were also conducted against root knot nematodes (Meloidogyne incognita) using an in vitro test in which nematodes were suspended in a liquid composition which had been prepared as described above except that it contained a concentration of 12.5 ppm by weight of a compound of formula (I) and it contained no SYNPERONIC NP8.
# [6] = test system: Diabrotica balteata; assay: Pest mortality test against corn root worm; assay type: in vivo; settings: 120 h, 500 ppm by weight, mortality assessed usually between two and five days after treatment, read-out: Db mortality (score)
# Procedure: as §1, §2, §3
structure (smiles),measurement,setting,value
"CCc1nsc(NC(=O)C(C)c2ccc3oc(-c4c(F)cccc4Cl)nc3c2)c1Cl (stereo not shown) [Compound 1, N-(4-chloro-3-ethylisothiazol-5-yl)-2-[2-(2-chloro-6-fluorophenyl)benzoxazol-5-yl]propionamide]",mortality at 500 ppm,[1],80 to 100%
same,mortality at 500 ppm,[2],80 to 100%
same,mortality at 500 ppm,[3],80 to 100%
same,mortality at 500 ppm,[4],80 to 100%
same,mortality at 12.5 ppm,[5],< 40%
same,mortality at 500 ppm,[6],80 to 100%
"Cc1nsc(NC(=O)C(C)c2ccc3oc(-c4cccc(Cl)c4Cl)nc3c2)c1Cl (stereo not shown) [Compound 11, N-(4-chloro-3-methylisothiazol-5-yl)-2-[2-(2,3-dichlorophenyl)benzoxazol-5-yl]propionamide]",melting point,,158 to 161 °C
